These results are taken from patent US10703756B2, “Pyrrolo[2,3-D]pyrimidinyl, pyrrolo[2,3-B]pyrazinyl, pyrrolo[2,3-B]pyridinyl acrylamides and epoxides thereof” (Pfizer Inc., priority 2015, dated 2020).

Series [1] deals with T1, JAK3 enzyme (Homo sapiens, UniProt P52333).
T1 sequence (P52333 1-1124): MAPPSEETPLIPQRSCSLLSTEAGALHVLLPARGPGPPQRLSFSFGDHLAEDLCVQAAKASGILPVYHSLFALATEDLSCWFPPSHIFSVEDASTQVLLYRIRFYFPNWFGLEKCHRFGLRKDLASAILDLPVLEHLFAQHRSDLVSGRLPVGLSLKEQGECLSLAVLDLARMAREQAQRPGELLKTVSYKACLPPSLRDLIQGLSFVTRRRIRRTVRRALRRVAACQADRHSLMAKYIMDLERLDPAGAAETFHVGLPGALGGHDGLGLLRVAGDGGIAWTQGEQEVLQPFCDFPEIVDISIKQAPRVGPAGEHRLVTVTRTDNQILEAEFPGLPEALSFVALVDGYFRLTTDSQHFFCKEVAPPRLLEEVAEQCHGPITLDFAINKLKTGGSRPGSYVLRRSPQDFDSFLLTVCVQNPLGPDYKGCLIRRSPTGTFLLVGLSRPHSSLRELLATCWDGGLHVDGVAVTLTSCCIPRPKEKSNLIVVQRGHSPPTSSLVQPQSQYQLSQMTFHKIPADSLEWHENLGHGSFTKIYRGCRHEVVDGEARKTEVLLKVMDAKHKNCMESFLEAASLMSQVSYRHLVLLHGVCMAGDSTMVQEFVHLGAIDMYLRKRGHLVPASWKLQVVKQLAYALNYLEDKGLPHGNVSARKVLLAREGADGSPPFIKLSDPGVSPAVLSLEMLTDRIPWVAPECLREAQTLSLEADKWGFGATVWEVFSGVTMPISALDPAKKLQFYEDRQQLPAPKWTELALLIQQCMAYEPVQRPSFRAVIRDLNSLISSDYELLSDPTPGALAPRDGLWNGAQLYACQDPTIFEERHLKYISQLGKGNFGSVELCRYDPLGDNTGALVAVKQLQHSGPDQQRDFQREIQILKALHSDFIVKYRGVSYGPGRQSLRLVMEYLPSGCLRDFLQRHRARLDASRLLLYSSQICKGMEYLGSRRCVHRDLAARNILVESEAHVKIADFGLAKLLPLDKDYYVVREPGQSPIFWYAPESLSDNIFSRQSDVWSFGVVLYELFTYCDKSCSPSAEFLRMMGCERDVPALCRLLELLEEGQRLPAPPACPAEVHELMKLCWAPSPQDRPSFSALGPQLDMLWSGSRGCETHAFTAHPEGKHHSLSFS
Briefly: JAK Caliper Enzyme Assay at 4 μM ATP. It is filed as biochemical. In outline: (§1)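 Test compounds were diluted in DMSO as an 11-point half-log series from a 600 μM top concentration (DMSO series, not final assay level). Enzyme amount and incubation time were set per enzyme prep to reach 20%-30% phosphorylation. Phosphorylated and unphosphorylated peptide were resolved by microfluidic separation.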

The target in series [2] is T1, JAK3 enzyme. The experiment in a line: JAK Caliper Enzyme Assay at 1 mM ATP. Format: biochemical. In short, it runs like this: as §1
Series [3] can be described thus: Stability of JAK3 Covalent Inhibitors in Human Whole Blood. It is filed as in vitro ADME. The following applies: 1 μM test compound, 37° C., 180 min incubation; for half-life at 1 μM: both sexes, read-out: Human blood stability t1/2. As for the experimental part: Stability of JAK3 Covalent Inhibitors in Rat and Human Whole Blood
Rat blood was collected from 3 male Sprague-Dawley rats (200-250 g, Charles River Laboratories) and pooled for each study. Human blood was collected from healthy subjects at the Occupational Health & Wellness Center at Pfizer, Groton, Conn. and pooled for each study. Both rat and human blood was collected freshly into K2-EDTA tubes and kept on ice. An aliquot of the blood was transferred to microtubes and pre-warmed for 10 min at 37° C. using a heat block. The test compound was then added (1 μM final concentration) and the incubation was continued for 180 min at 37° C. in duplicates. An aliquot of the incubation mixture was removed at designated time points during the course of the incubation, mixed with an aliquot of acetonitrile containing an internal standard, vortexed and centrifuged. The resulting supernatants were removed and subjected to LC-MS/MS analyses to determine parent compound concentrations. Peak area ratios of the parent compound vs the internal standard were used to determine the % of parent compound remaining vs incubation time.

The test system of series [4] is IL-15 induced P-STAT5 in human PBMC. Briefly: PBMC IL-15 Induced P-STAT5. Format: cell-based. The following applies: human PBMC, IL-15 final 41 ng/mL; read-out: PBMC IL15_pSTAT5_IC50. In outline: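 Thawed human PBMC, rested in human plasma, were preincubated 15 min at 37 °C with compound (0.2% DMSO), then stimulated 15 min with IL-15 at 41 ng/mL final. After paraformaldehyde fixation and methanol permeabilisation, Alexa Fluor 647 anti-STAT5 staining overnight at 4 °C was analysed by flow cytometry on total lymphocytes.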

SMILES strings stand for the structures.

On to `C=CC(=O)N1CC[C@H](CNc2cnc3[nH]cc(C(=O)N[C@@H](C)COC)c3n2)C1` (single isomer, unassigned) [Example 18], for which the figures for the IC50 (against JAK3 enzyme [1]; against JAK3 enzyme [2]; in series [4]) were 0.491 nM, 96 nM and 5990 nM, respectively. In addition, the half-life at 1 μM in series [3] is over 6 h.

Consider `C=CC(=O)N1CC[C@H](Nc2cnc3[nH]cc(C(=O)NCC(F)(F)F)c3n2)C1` [Example 231, 2-{[(3S)-1-acryloylpyrrolidin-3-yl]amino}-N-(2,2,2-trifluoroethyl)-5H-pyrrolo[2,3-b]pyrazine-7-carboxamide], for which the IC50 came out at 0.322 nM on JAK3 enzyme [1], 85 nM against JAK3 enzyme [2] and 353 nM in series [4]. For the same compound, the half-life at 1 μM in series [3] was 5.35 h.

In the case of `C=CC(=O)N1C[C@@H](Nc2cnc3[nH]cc(C(=O)NCC)c3n2)CC[C@H]1C` (racemic) [Example 74, Cis-racemic-2-{[1-acryloyl-6-methylpiperidin-3-yl]amino}-N-ethyl-5H-pyrrolo[2,3-b]pyrazine-7-carboxamide], the IC50 against JAK3 enzyme [1] is 0.995 nM; against JAK3 enzyme [2], 177 nM; in series [4] it was 1180 nM. The half-life at 1 μM in series [3] is over 6 h.

For the compound `C=CC(=O)N1C[C@@H](Nc2cnc3[nH]cc(C(=O)N[C@@H](C)COC)c3n2)CC[C@H]1C` (racemic) [Example 65, Cis-racemic-2-{[1-acryloyl-6-methylpiperidin-3-yl]amino}-N-[(2S)-1-methoxypropan-2-yl]-5H-pyrrolo[2,3-b]pyrazine-7-carboxamide], the IC50 is 1.02 nM against JAK3 enzyme [1], 53 nM on JAK3 enzyme [2] and 585 nM in series [4]. In addition, in series [3], the half-life at 1 μM is over 6 h.

As to `C=CC(=O)N1CC[C@@H](Nc2cnc3[nH]cc(C(=O)NCC)c3n2)C1` (single isomer, unassigned) [Example 243], the IC50 on JAK3 enzyme [1] amounted to 0.586 nM; against JAK3 enzyme [2] it was 141 nM; in series [4], 1730 nM. Also, the half-life at 1 μM in series [3] is over 6 h.

For the compound `C=CC(=O)N1CCC[C@H](Oc2cnc3[nH]cc(C(=O)N[C@@H](C)COC)c3n2)C1` [Example 50, 2-{[(3S)-1-acryloylpiperidin-3-yl]oxy}-N-[(2S)-1-methoxypropan-2-yl]-5H-pyrrolo[2,3-b]pyrazine-7-carboxamide], the IC50 on JAK3 enzyme [1] came to 1.09 nM; on JAK3 enzyme [2] it was 91 nM; in series [4], 431 nM. Besides, in series [3], the half-life at 1 μM is over 6 h.

Take `C=CC(=O)N1CC(Nc2ncnc3[nH]ccc23)CCC1[C@@H](C)O` (mixture of isomers) [Example 109]: the figures for the IC50 (against JAK3 enzyme [1]; at JAK3 enzyme [2]; in series [4]) were 0.713 nM, 155 nM and 320 nM, respectively. Besides, in series [3], the “Human blood stability t1/2” value was found to be 2.20175 h.

As for `C=CC(=O)N1CC[C@@H](Nc2cnc3[nH]cc(C(=O)NCC)c3n2)[C@H](C)C1` (racemic) [Example 43, Trans-racemic-2-{[(3R,4R)-1-acryloyl-3-methylpiperidin-4-yl]amino}-N-ethyl-5H-pyrrolo[2,3-b]pyrazine-7-carboxamide], the values for the IC50 (against JAK3 enzyme [1]; at JAK3 enzyme [2]; in series [4]) were 0.258 nM, 50 nM and 411 nM, respectively. Moreover, the half-life at 1 μM in series [3] turned out to be 3.73 h.

For `C=CC(=O)N1CC[C@H](Oc2cnc3[nH]cc(C(=O)NCC)c3n2)C[C@H]1C` (single isomer, unassigned) [Example 78], the IC50 against JAK3 enzyme [1] was 1.83 nM; against JAK3 enzyme [2], 314 nM; in series [4] it was 935 nM. For the same compound, the half-life at 1 μM in series [3] is over 6 h.

On to `C=CC(=O)N1C[C@@H](Oc2cnc3[nH]cc(C(=O)N[C@@H](C)COC)c3n2)CC[C@H]1C` (racemic) [Example 80, Cis-racemic-2-{[1-acryloyl-6-methylpiperidin-3-yl]oxy}-N-[(2S)-1-methoxypropan-2-yl]-5H-pyrrolo[2,3-b]pyrazine-7-carboxamide], for which the IC50 against JAK3 enzyme [1] was 1.32 nM; against JAK3 enzyme [2], 160 nM; in series [4], 829 nM. For the same compound, the half-life at 1 μM in series [3] was 4.8 h.

Consider `C=CC(=O)N1CC[C@@H](CNc2cnc3[nH]cc(C(=O)N[C@@H](C)COC)c3n2)C1` (single isomer, unassigned) [Example 17], for which the values for the IC50 (at JAK3 enzyme [1]; against JAK3 enzyme [2]; in series [4]) were 0.319 nM, 37 nM and 2560 nM, respectively. In addition, the half-life at 1 μM in series [3] turned out to be 3.16 h.

Regarding `C=CC(=O)N1C[C@@H](Nc2cnc3[nH]cc(C(=O)NCC)c3n2)CC[C@H]1C` (single isomer, unassigned) [Example 75], the IC50 against JAK3 enzyme [1] amounted to 1.6 nM; against JAK3 enzyme [2], 316 nM; in series [4], 2280 nM. The half-life at 1 μM in series [3] was over 6 h.

As to `C=CC(=O)N1CCCC(Nc2cnc3[nH]cc(C(=O)NCC)c3n2)C1` (racemic) [Example 34, Racemic-2-[(1-acryloylpiperidin-3-yl)amino]-N-ethyl-5H-pyrrolo[2,3-b]pyrazine-7-carboxamide], the IC50 on JAK3 enzyme [1] was found to be 0.501 nM; at JAK3 enzyme [2], 105 nM; in series [4] it was 580 nM. In series [3], the half-life at 1 μM was over 6 h.

Take `C=CC(=O)N1CC[C@H](Oc2cnc3[nH]cc(C(=O)N[C@@H](C)COC)c3n2)C1` [Example 52, 2-{[(3S)-1-acryloylpyrrolidin-3-yl]oxy}-N-[(2S)-1-methoxypropan-2-yl]-5H-pyrrolo[2,3-b]pyrazine-7-carboxamide]: the IC50 stood at 1.02 nM against JAK3 enzyme [1], 153 nM on JAK3 enzyme [2] and 627 nM in series [4]. Further, in series [3], the half-life at 1 μM was 2.78 h.

Turning to `C=CC(=O)N1C[C@@H](CO)C[C@@H](Nc2ncnc3[nH]ccc23)C1` (single isomer, unassigned) [Example 98], the IC50 against JAK3 enzyme [1] was 1.26 nM; at JAK3 enzyme [2], 152 nM; in series [4] it was 932 nM. In addition, in series [3], the half-life at 1 μM amounted to 1.76 h.

Turning to `C=CC(=O)N1C[C@@H](Nc2ncnc3[nH]ccc23)CC[C@@H]1[C@@H](C)O` (single isomer, unassigned) [Example 111], the values for the IC50 (on JAK3 enzyme [1]; against JAK3 enzyme [2]; in series [4]) were 0.858 nM, 77 nM and 537 nM, respectively. In addition, the half-life at 1 μM in series [3] was determined as 2.87 h.

Regarding `C=CC(=O)N1C[C@H](Nc2ncnc3[nH]ccc23)C[C@H](O)[C@@H]1C` [Example 133], the IC50 on JAK3 enzyme [1] was 1.11 nM; against JAK3 enzyme [2], 76 nM; in series [4], 302 nM. In series [3], the “Human blood stability t1/2” value worked out at 3.97 h.

On to `C=CC(=O)N1CC[C@H](Nc2cnc3[nH]cc(C(=O)NCC)c3n2)[C@H](C)C1` (single isomer, unassigned) [Example 39], for which the IC50 on JAK3 enzyme [1] came out at 1.01 nM; on JAK3 enzyme [2], 202 nM; in series [4], 2380 nM. Besides, the half-life at 1 μM in series [3] is over 6 h.

Turning to `C=CC(=O)N1C[C@@H](Nc2cnc3[nH]cc(C(=O)N[C@@H](C)COC)c3n2)CC[C@H]1C` (single isomer, unassigned) [Example 67], the IC50 was 0.511 nM on JAK3 enzyme [1], 25 nM at JAK3 enzyme [2] and 439 nM in series [4]. Besides, in series [3], the half-life at 1 μM was over 6 h.
